Results taken from patent US20190023733A1, “AMINE DERIVATIVES OF LUPANES WITH HIV MATURATION INHIBITORY ACTIVITY” (priority 2016, published 2019).
Counter-ions that a name gives are not always drawn.

Assays:
HIV-1 (strain IIIB) = experiment: MT4 cell antiviral assay (as described in the method); assay type: cell-based; conditions: Human immunodeficiency virus 1, IIIB, control and standard in every assay, propidium iodide readout, read-out: expected range of IC50 values
Description: Antiviral HIV activity and compound-induced cytotoxicity were measured in parallel by means of a propidium iodide based procedure in the human T-cell lymphotropic virus transformed cell line MT4. Aliquots of the test compounds were serially diluted in medium (RPMI 1640, 10% fetal calf serum (FCS), and gentamycin) in 96-well plates (Costar 3598) using a Cetus Pro/Pette. Exponentially growing MT4 cells were harvested and centrifuged at 1000 rpm for 10 min in a Jouan centrifuge (model CR 4 12). Cell pellets were resuspended in fresh medium (RPMI 1640, 20% FCS, 20% IL-2, and gentamycin) to a density of 5×10^5 cells/ml. […]
For propidium iodide readout, 27 μl of 5% Nonidet-40 was added to each well of the incubation plate. […] The plates were analyzed in an automated assay instrument (Screen Machine, Idexx Laboratories). […]
For MTS readout, 20 μl CellTiter 96 AQ One Solution reagent (Promega #G3582) was added to each well. At 75 minutes following the addition of MTS reagent, absobance was read at 492 nm using a Tecan Sunrise 96-well plate reader. […]
For each assay plate, the results (relative fluorescence units, rfU, or OD values) of wells containing uninfected cells or infected cells with no compound were averaged, respectively. […] Percent of cells remaining is determined by the following formula: […]

HIV = conditions: cited from earlier work
HIV-1 NL4-3 wt = experiment: MT4 cell antiviral assay, NL4-3 wt; assay type: cell-based; conditions: Human immunodeficiency virus 1, NL43, 120 h; MT4 cells, 5 days, HIV-induced cytopathic effect
HIV-1 V370A = experiment: MT4 cell antiviral assay, V370A; assay type: cell-based; conditions: Human immunodeficiency virus 1, MT4, 120 h, read-out: EC50 V370A

Q: For Cc1cn([C@H]2C[C@H](N=[N+]=[N-])[C@@H](CO)O2)c(=O)[nH]c1=O [3′-azido-3′-deoxythymidine], which IC50 (HIV-1 (strain IIIB)) is on record?
A: Its IC50 is 0.04 to 0.12 µM.

Q: With C=C(C)[C@@H]1CC[C@]2(C(=O)O)CC[C@]3(C)[C@H](CC[C@@H]4[C@@]5(C)CC[C@H](OC(=O)CC(C)(C)C(=O)O)C(C)(C)[C@@H]5CC[C@]43C)[C@@H]12 [Bevirimat] as the molecule, how does the “mean reduction of HIV viral load” value (HIV; patients with trough levels >=20 μg/mL and no key baseline Gag polymorphisms at Q369, V370 or T371) read?
A: The value was 1.3 log10/mL.

Q: And the “viral load reduction versus patients without Gag polymorphisms” value (HIV; users with Gag polymorphisms at Q369, V370 or T371)?
A: Its value is “significantly lower load reductions”.

Q: What does the source list for CC(C)C1=C2[C@H]3CC[C@@H]4[C@@]5(C)CC=C(C6=CCC(C(=O)O)CC6)C(C)(C)[C@@H]5CC[C@@]4(C)[C@]3(C)CC[C@@]2(NCCN2CCC(S(C)(=O)=O)CC2)CC1=O (stereo partly drawn) [Example 1, 4-((3aR,5aR,5bR,7aR,11aS,11bR,13aS)-1-Isopropyl-5a,5b,8,8,11a-pentamethyl-3a-((2-(4-(methylsulfonyl)piperidin-1-yl)ethyl)amino)-2-oxo-3,3a,4,5,5a,5b,6,7,7a,8,11,11a,11b,12,13,13a-hexadecahydro-2H-cyclopenta[a]chrysen-9-yl)cyclohex-3-enecarboxylic acid]?
A: EC50 (HIV-1 NL4-3 wt): 0.099 µM; EC50 (HIV-1 V370A): 0.352 µM

Q: With CC(C)C1=C2[C@H]3CC[C@@H]4[C@@]5(C)CC=C(C6=CCC(C(=O)O)CC6)C(C)(C)[C@@H]5CC[C@@]4(C)[C@]3(C)CC[C@@]2(NCCN2CCS(=O)(=O)CC2)CC1=O (stereo partly drawn) [Example 2, 4-((3aR,5aR,5bR,7aR,11aS,11bR,13aS)-3a-((2-(1,1-Dioxidothiomorpholino)ethyl)amino)-1-isopropyl-5a,5b,8,8,11a-pentamethyl-2-oxo-3,3a,4,5,5a,5b,6,7,7a,8,11,11a,11b,12,13,13a-hexadecahydro-2H-cyclopenta[a]chrysen-9-yl)cyclohex-3-enecarboxylic acid] as the molecule, how does the EC50 (HIV-1 NL4-3 wt) read?
A: Its EC50 is 0.008 µM.

Q: What about the EC50 (HIV-1 V370A) of the same molecule?
A: The EC50 was 0.018 µM.

Q: For CC(C)C1=C2[C@H]3CC[C@@H]4[C@@]5(C)CC=C(C6=CCC(C(=O)O)CC6)C(C)(C)[C@@H]5CC[C@@]4(C)[C@]3(C)CC[C@@]2(NCCN(CCN(C)C)Cc2ccc(Cl)cc2)CC1=O (stereo partly drawn) [Example 3, 4-((3aR,5aR,5bR,7aR,11aS,11bR,13aS)-3a-((2-((4-Chlorobenzyl)(2-(dimethylamino)ethyl)amino)ethyl)amino)-1-isopropyl-5a,5b,8,8,11a-pentamethyl-2-oxo-3,3a,4,5,5a,5b,6,7,7a,8,11,11a,11b,12,13,13a-hexadecahydro-2H-cyclopenta[a]chrysen-9-yl)cyclohex-3-enecarboxylic acid], which EC50 (HIV-1 NL4-3 wt) is on record?
A: The EC50 was 0.011 µM.

Q: What about the EC50 (HIV-1 V370A) of the same molecule?
A: Its EC50 is 0.042 µM.

Q: With CC(C)C1=C2[C@H]3CC[C@@H]4[C@@]5(C)CC=C(c6ccc(C(=O)O)cc6)C(C)(C)[C@@H]5CC[C@@]4(C)[C@]3(C)CC[C@@]2(NCCN(CCN(C)C)Cc2ccc(Cl)cc2)CC1=O [Example 4, 4-((3aR,5aR,5bR,7aR,11aS,11bR,13aS)-3a-((2-((4-Chlorobenzyl)(2-(dimethylamino)ethyl)amino)ethyl)amino)-1-isopropyl-5a,5b,8,8,11a-pentamethyl-2-oxo-3,3a,4,5,5a,5b,6,7,7a,8,11,11a,11b,12,13,13a-hexadecahydro-2H-cyclopenta[a]chrysen-9-yl)benzoic acid hydrochloride salt] as the molecule, how does the EC50 (HIV-1 NL4-3 wt) read?
A: Its EC50 is 0.029 µM.

Q: What does the source list for CC(C)C1=C2[C@H]3CC[C@@H]4[C@@]5(C)CC=C(c6ccc(C(=O)O)cc6)C(C)(C)[C@@H]5CC[C@@]4(C)[C@]3(C)CC[C@@]2(NCCN2CCS(=O)(=O)CC2)CC1=O [Example 5, 4-((3aR,5aR,5bR,11aS)-3a-((2-(1,1-Dioxidothiomorpholino)ethyl)amino)-1-isopropyl-5a,5b,8,8,11a-pentamethyl-2-oxo-3,3a,4,5,5a,5b,6,7,7a,8,11,11a,11b,12,13,13a-hexadecahydro-2H-cyclopenta[a]chrysen-9-yl)benzoic acid hydrochloride]?
A: EC50 (HIV-1 NL4-3 wt): 0.03 µM; EC50 (HIV-1 V370A): 0.776 µM

Q: Which EC50 (HIV-1 NL4-3 wt) does the source give for CC(C)C1=C2C3CCC4[C@@]5(C)CC=C(c6ccc(C(=O)O)cc6)C(C)(C)C5CC[C@@]4(C)[C@]3(C)CC[C@@]2(NC(=O)CN2CCS(=O)(=O)CC2)CC1=O (stereo partly drawn) [Example 6, 4-((3aR,5aR,5bR,11aS)-3a-(2-(1,1-Dioxidothiomorpholino)acetamido)-1-isopropyl-5a,5b,8,8,11a-pentamethyl-2-oxo-3,3a,4,5,5a,5b,6,7,7a,8,11,11a,11b,12,13,13a-hexadecahydro-2H-cyclopenta[a]chrysen-9-yl)benzoic acid hydrochloride salt] here?
A: Its EC50 is 0.159 µM.

Q: Which EC50 (HIV-1 NL4-3 wt) does the source give for CC(C)C1=C2C3CCC4[C@@]5(C)CC=C(c6ccc(C(=O)O)cc6)C(C)(C)C5CC[C@@]4(C)[C@]3(C)CC[C@@]2(NC(=O)N(CCN(C)C)Cc2ccc(Cl)cc2)CC1=O (stereo partly drawn) [Example 7, 4-((3aR,5aR,5bR,11aS)-3a-(3-(4-chlorobenzyl)-3-(2-(dimethylamino)ethyl)ureido)-1-isopropyl-5a,5b,8,8,11a-pentamethyl-2-oxo-3,3a,4,5,5a,5b,6,7,7a,8,11,11a,11b,12,13,13a-hexadecahydro-2H-cyclopenta[a]chrysen-9-yl)benzoic acid] here?
A: Its EC50 is 0.0063 µM.

Q: What does the source list for CC(C)C1=C2C3CCC4[C@@]5(C)CC=C(c6ccc(C(=O)O)cc6)C(C)(C)C5CC[C@@]4(C)[C@]3(C)CC[C@@]2(NC(=O)CN(CCN(C)C)Cc2ccc(Cl)cc2)CC1=O (stereo partly drawn) [Example 8, 4-((3aR,5aR,5bR,11aS)-3a-(2-((4-chlorobenzyl)(2-(dimethylamino)ethyl)amino)acetamido)-1-isopropyl-5a,5b,8,8,11a-pentamethyl-2-oxo-3,3a, 4,5,5a,5b,6,7,7a,8,11,11a,11b,12,13,13a-hexadecahydro-2H-cyclopenta[a]chrysen-9-yl)benzoic acid]?
A: EC50 (HIV-1 NL4-3 wt): 0.002 µM; EC50 (HIV-1 V370A): 0.008 µM
